Results from ChEMBL document CHEMBL1201862, “PubChem BioAssay data set” (2004).
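Assay format: 96-well plates, 48-hour exposure. GI50: concentration for 50% inhibition of growth.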 Calls of active or inactive are those of the source. No stated cut-off is given here; in the data, active = GI50 up to about 1.1 µM and inactive = higher.

Assays:
Test in all cases: DTP human tumour cell line panel, 48 h
HOP-92 = tested on: HOP-92
NCI-H23 = tested on: NCI-H23
DMS-114 = tested on: DMS-114
OVCAR-3 = tested on: OVCAR-3
SNB-75 = tested on: SNB-75
NCI-H522 = tested on: NCI-H522
CCRF-CEM = tested on: CCRF-CEM
ACHN = tested on: ACHN
SK-MEL-2 = tested on: SK-MEL-2
MOLT-4 = tested on: MOLT-4
KM-20L2 = tested on: KM-20L2
HCC 2998 = tested on: HCC 2998
RPMI-8226 = tested on: RPMI-8226
UACC-62 = tested on: UACC-62
SK-MEL-5 = tested on: SK-MEL-5
COLO 205 = tested on: COLO 205
NCI-H460 = tested on: NCI-H460
SW-620 = tested on: SW-620
IGROV-1 = tested on: IGROV-1
XF498 = tested on: XF498
RXF 631 = tested on: RXF 631
M14 = tested on: M14
786-0 = tested on: 786-0
K562 = tested on: K562
Malme-3M = tested on: Malme-3M
SF-295 = tested on: SF-295
EKVX = tested on: EKVX
A549 = tested on: A549
OVCAR-4 = tested on: OVCAR-4
SNB-19 = tested on: SNB-19
SN12C = tested on: SN12C
NCI-H226 = tested on: NCI-H226
KM12 = tested on: KM12
SK-MEL-28 = tested on: SK-MEL-28
HCT-15 = tested on: HCT-15
A498 = tested on: A498
DLD-1 = tested on: DLD-1
HCT-116 = tested on: HCT-116
SF-539 = tested on: SF-539
SF-268 = tested on: SF-268
U-251 = tested on: U-251
LXFL 529 = tested on: LXFL 529
HL-60 = tested on: HL-60
M19-MEL = tested on: M19-MEL
UO-31 = tested on: UO-31
UACC-257 = tested on: UACC-257
SK-OV-3 = tested on: SK-OV-3
HT-29 = tested on: HT-29
CAKI-1 = tested on: CAKI-1
DMS-273 = tested on: DMS-273
TK-10 = tested on: TK-10
OVCAR-8 = tested on: OVCAR-8
OVCAR-5 = tested on: OVCAR-5
HOP-62 = tested on: HOP-62
RXF 393 = tested on: RXF 393
SNB-78 = tested on: SNB-78

## CC(C)c1ccc(C2C3=C(N=C4SCC(=O)N42)C(=O)c2ccccc23)cc1 (centres undefined)
HOP-92
  GI50: 15.7 µM (inactive)
NCI-H23
  GI50: 75.3 µM (inactive)
DMS-114
  GI50: 53.5 µM (inactive)
OVCAR-3
  GI50: 60 µM (inactive)
SNB-75
  GI50: 22.3 µM (inactive)
NCI-H522
  GI50: 22.4 µM (inactive)
CCRF-CEM
  GI50: 57.3 µM (inactive)
ACHN
  GI50: 73.1 µM (inactive)
SK-MEL-2
  GI50: > 100 µM (inactive)
MOLT-4
  GI50: 49.7 µM (inactive)
KM-20L2
  GI50: > 100 µM (inactive)
HCC 2998
  GI50: > 100 µM (inactive)
RPMI-8226
  GI50: 43.3 µM (inactive)
UACC-62
  GI50: 33.7 µM (inactive)
SK-MEL-5
  GI50: 52.6 µM (inactive)
COLO 205
  GI50: > 100 µM (inactive)
NCI-H460
  GI50: > 100 µM (inactive)
SW-620
  GI50: > 100 µM (inactive)
IGROV-1
  GI50: > 100 µM (inactive)
XF498
  GI50: 87.3 µM (inactive)
RXF 631
  GI50: > 100 µM (inactive)
M14
  GI50: > 100 µM (inactive)
786-0
  GI50: > 100 µM (inactive)
K562
  GI50: 54 µM (inactive)
Malme-3M
  GI50: > 100 µM (inactive)
SF-295
  GI50: 82.8 µM (inactive)
EKVX
  GI50: 77.3 µM (inactive)
A549
  GI50: 58.9 µM (inactive)
OVCAR-4
  GI50: 43.4 µM (inactive)
SNB-19
  GI50: 64.9 µM (inactive)
SN12C
  GI50: 41 µM (inactive)
NCI-H226
  GI50: 51.4 µM (inactive)
KM12
  GI50: > 100 µM (inactive)
SK-MEL-28
  GI50: 35.1 µM (inactive)
HCT-15
  GI50: 88.9 µM
A498
  GI50: > 100 µM (inactive)
DLD-1
  GI50: 81.8 µM (inactive)
HCT-116
  GI50: 70.6 µM (inactive)
SF-539
  GI50: > 100 µM (inactive)
SF-268
  GI50: 37.1 µM (inactive)
U-251
  GI50: 74 µM (inactive)
LXFL 529
  GI50: 52.4 µM (inactive)
HL-60
  GI50: 36 µM (inactive)
M19-MEL
  GI50: 83.4 µM (inactive)
UO-31
  GI50: 5.6 µM (inactive)
UACC-257
  GI50: > 100 µM (inactive)
SK-OV-3
  GI50: > 100 µM (inactive)
HT-29
  GI50: > 100 µM (inactive)
CAKI-1
  GI50: 99.1 µM (inactive)
DMS-273
  GI50: > 100 µM (inactive)
TK-10
  GI50: > 100 µM (inactive)
OVCAR-8
  GI50: > 100 µM (inactive)
OVCAR-5
  GI50: > 100 µM (inactive)
HOP-62
  GI50: > 100 µM (inactive)

## N#C/C(=C\c1cccc(O)c1O)C(N)=O
HOP-92
  GI50: 41.3 µM (inactive)
NCI-H23
  GI50: 34.8 µM (inactive)
DMS-114
  GI50: 29.9 µM (inactive)
OVCAR-3
  GI50: 40.9 µM (inactive)
SNB-75
  GI50: 9.57 µM (inactive)
NCI-H522
  GI50: 21 µM (inactive)
CCRF-CEM
  GI50: 14.1 µM (inactive)
ACHN
  GI50: 26.6 µM (inactive)
SK-MEL-2
  GI50: 38.4 µM (inactive)
MOLT-4
  GI50: 35.9 µM (inactive)
KM-20L2
  GI50: 52.5 µM (inactive)
HCC 2998
  GI50: 20.3 µM (inactive)
RPMI-8226
  GI50: 18.3 µM (inactive)
UACC-62
  GI50: 35.2 µM (inactive)
COLO 205
  GI50: 21.5 µM (inactive)
NCI-H460
  GI50: 29.4 µM (inactive)
SW-620
  GI50: 50.2 µM (inactive)
IGROV-1
  GI50: 93.1 µM (inactive)
XF498
  GI50: 31.4 µM (inactive)
RXF 631
  GI50: 48.8 µM (inactive)
M14
  GI50: 67.1 µM (inactive)
786-0
  GI50: 33.3 µM (inactive)
K562
  GI50: 38.6 µM (inactive)
Malme-3M
  GI50: 46.8 µM (inactive)
SF-295
  GI50: 58.1 µM (inactive)
EKVX
  GI50: 34.8 µM (inactive)
A549
  GI50: 65.3 µM (inactive)
OVCAR-4
  GI50: 62.4 µM (inactive)
RXF 393
  GI50: 3.22 µM (inactive)
SNB-19
  GI50: 57.5 µM (inactive)
SN12C
  GI50: 45.6 µM (inactive)
NCI-H226
  GI50: 25.3 µM (inactive)
KM12
  GI50: 36.3 µM (inactive)
SK-MEL-28
  GI50: 30.8 µM (inactive)
HCT-15
  GI50: 57.8 µM
A498
  GI50: 74.3 µM (inactive)
DLD-1
  GI50: 45.4 µM (inactive)
HCT-116
  GI50: 34.5 µM (inactive)
SF-539
  GI50: 34 µM (inactive)
SF-268
  GI50: 37.9 µM (inactive)
SNB-78
  GI50: 52 µM (inactive)
U-251
  GI50: 61.4 µM (inactive)
LXFL 529
  GI50: 50.6 µM (inactive)
HL-60
  GI50: 15.5 µM (inactive)
M19-MEL
  GI50: 54.8 µM (inactive)
UO-31
  GI50: 22.7 µM (inactive)
UACC-257
  GI50: 39.5 µM (inactive)
SK-OV-3
  GI50: 28.8 µM (inactive)
HT-29
  GI50: 58.5 µM (inactive)
CAKI-1
  GI50: 41.3 µM (inactive)
DMS-273
  GI50: 57.3 µM (inactive)
TK-10
  GI50: 42.1 µM (inactive)
OVCAR-8
  GI50: 60.8 µM (inactive)
OVCAR-5
  GI50: > 100 µM (inactive)
HOP-62
  GI50: 68.9 µM (inactive)
